We go through 40 molecules from the Deep4Chem optical property database.

SMILES strings stand for the structures.

This series can be described thus: solvent given as SMILES.
Setting [1] is: in O=P(c1ccccc1)(c1ccccc1)c1ccccc1Oc1ccccc1P(=O)(c1ccccc1)c1ccccc1.
Setting [2] is: in c1cc(-n2c3ccccc3c3ccccc32)cc(-n2c3ccccc3c3ccccc32)c1.

Take `CCCCN1C(=O)c2cccc3c(OC)ccc(c23)C1=O`: under “in Cc1ccccc1”, the emission maximum amounted to 422 nm.

`COCCOCCOCCOCC(COCCOCCOCCOC)Oc1cc(/C=C/c2ccc(/C=C(\C#N)c3ccncc3)cc2)c(OC(COCCOCCOCCOC)COCCOCCOCCOC)cc1/C=C/c1ccc(/C=C(\C#N)c2ccncc2)cc1` showed an emission maximum (in ClCCl) of 574 nm.

On to `Cn1c(=O)cc(C(=O)c2ccccc2)c2sc(-c3ccc(N(c4ccccc4)c4ccccc4)cc3)cc21`, for which the emission maximum is, setting by setting: (in CC#N) 504 nm; (in ClCCl) 635 nm.

`C1=C/C2=C(\c3ccccc3)c3c[nH]c(c3)/C(c3ccccc3)=C3/C=CC(=N3)/C(c3ccccc3)=c3/cc/c([nH]3)=C(\c3ccccc3)C1=N2` came in with an emission maximum (in CC(=O)N(C)C) of 713 nm.

`COc1ccc(-n2nc(C(=O)N3CCCC3)c(N3CCCC3)n2)cc1` registered an emission maximum (in CC#N) of 412 nm; an emission maximum (in CCCCCC) of 405 nm; an emission maximum (in CCO) of 410 nm; an emission maximum (in CN(C)C=O) of 396 nm; an emission maximum (in ClC(Cl)Cl) of 411 nm.

`CCOC(=O)/N=c1/oc2c(OC)cccc2cc1C#N` displayed an emission maximum (in ClCCl) of 465 nm.

For the molecule `O=C(O)c1ccc(-c2cnc(-c3ccc(N(c4ccccc4)c4ccccc4)cc3)s2)cc1`, the emission maximum (in CO) is reported as 496 nm.

As for `CCCCn1c2ccc(-c3ccc4ccccc4c3)cc2c2ccc3c4cc(-c5ccc6ccccc6c5)ccc4n(CCCC)c3c21`, the emission maximum (in ClC(Cl)Cl) is listed as 418 nm.

For `COc1ccc2n1[B-](F)(F)[N+]1=C(c3ccccc3)C=CC1=C2c1ccc(C)cc1`, the emission maximum runs as follows: (in C1CCCCC1) 553 nm; (in C1CCOC1) 555 nm; (in C1COCCO1) 556 nm; (in CCOC(C)=O) 552 nm; (in CO) 550 nm; (in Cc1ccccc1) 558 nm. The molecule further returned an emission maximum (in ClC(Cl)Cl) of 557 nm.

With `c1cc2c3cc1c1ccc4c(c1)c1cc(ccc1[C@]15OCCO[C@]41OCCO5)c1ccc4c(c1)c1cc(ccc1[C@]15OCCO[C@]41OCCO5)c1ccc(c3c1)[C@]13OCCO[C@]21OCCO3`, under “in Cc1ccccc1”, the emission maximum is recorded as 343 nm.

Take `FC(F)(F)c1ccc(-c2ccc(-c3cc(-c4ccccn4)nc(-c4ccccn4)c3)cc2)cc1`: the emission maximum (in ClCCl) was 359 nm.

As to `Cc1ccc2nnn(-c3c(C#N)c4c(N)ncnc4n3[C@H]3C[C@H](O)[C@@H](CO)O3)c2c1`, the emission maximum (in CO) worked out at 419 nm.

Molecule `Cc1nnc(-c2cc(-c3nnc(C)o3)c(-n3c4ccccc4c4ccccc43)cc2-n2c3ccccc3c3ccccc32)o1` had an emission maximum (in Cc1ccccc1) of 444 nm and an emission maximum under setting [1] of 448 nm.

Turning to `CCn1c2ccc(S(=O)(=O)O)cc2c(=O)c2cc3c(cc21)c(=O)c1cc(S(=O)(=O)O)ccc1n3CCCCCC(=O)O`, the emission maximum (in O) came to 559 nm.

Regarding `CCCCc1cc2cccc3cc(CCCC)c4cc(-c5cc6[b-]7c(c5)c(CCCC)cc5cccc(cc6CCCC)[n+]75)cc1[b-]4[n+]23`, the emission maximum (in C1CCCCC1) is listed as 550 nm.

Under “in Cc1ccccc1”, `CCCCCCCCCC1(CCCCCCCCC)c2cc(C#Cc3ccc(/C=C/c4ccc(N(CCCCCCCC)CCCCCCCC)cc4)cc3)ccc2-c2ccc(C#Cc3ccc(/C=C/c4ccc(N(CCCCCCCC)CCCCCCCC)cc4)cc3)cc21` displayed an emission maximum of 464 nm.

Regarding `CC(C)(C)c1ccc2c(c1)c1cc(C(C)(C)C)ccc1n2-c1ccccc1-c1nc(-c2ccccc2-n2c3ccc(C(C)(C)C)cc3c3cc(C(C)(C)C)ccc32)nc(-c2ccccc2P(=O)(c2ccccc2)c2ccccc2)n1`, the emission maximum was 512.54 nm (in C1CCOC1); 546.04 nm (in CC#N); 533.4 nm (in CC(C)=O); 546.04 nm (in CN(C)C=O); 493.22 nm (in Cc1ccccc1); 516.24 nm (in ClC(Cl)Cl). In addition, the emission maximum (in ClCCl) is reported as 529.29 nm and the emission maximum under setting [1] is on record as 500 nm.

As for `OCC1O[C@@H](Cc2cc(O)cc(/C=C/c3ccc(O)c(O)c3)c2)[C@H](O)[C@@H](O)[C@@H]1O` (stereo partly specified), the emission maximum (in C1CCOC1) is given as 375 nm; the emission maximum (in C1COCCO1) is 370 nm; the emission maximum (in CC#N) turned out to be 387 nm; the emission maximum (in CC(C)=O) turned out to be 376 nm; the emission maximum (in CCCCO) was determined as 385 nm; the emission maximum (in CCCO) turned out to be 386 nm. The molecule also displayed an emission maximum (in CCO) of 390 nm; an emission maximum (in CCOC(C)=O) of 372 nm; an emission maximum (in CCOCC) of 372 nm; an emission maximum (in CN(C)C=O) of 378 nm; an emission maximum (in CO) of 394 nm; an emission maximum (in CS(C)=O) of 381 nm. Besides, the emission maximum runs as follows: (in Cc1ccccc1) 371 nm; (in ClC(Cl)Cl) 373 nm; (in O) 403 nm.

Molecule `CC(C)[Si](C#Cc1c2ccccc2c(C#C[Si](C(C)C)(C(C)C)C(C)C)c2nc3c(ccc4ccccc43)nc12)(C(C)C)C(C)C` gave an emission maximum (in CCCCCC) of 553 nm.

In turn, `CCCCOc1c(C#N)cc2cc(C#N)c(OCCCC)c3c4c(OCCCC)c(C#N)cc5cc(C#N)c(OCCCC)c(c1c23)c54` showed an emission maximum (in ClCCl) of 514 nm.

Consider `COc1ccc2c(-c3nc(-c4ccccc4F)no3)cc(=O)oc2c1`, for which the emission maximum runs as follows: (in CCO) 464 nm; (in ClC(Cl)Cl) 453 nm.

Take `CC1(C)c2ccccc2N(c2cccc(S(=O)(=O)c3cccc(N4c5ccccc5C(C)(C)c5ccccc54)c3)c2)c2ccccc21`: the emission maximum is, setting by setting: (in C1CCOC1) 422 nm; (in CCCCC(CC)n1c2ccc(-n3c4ccccc4c4ccccc43)cc2c2cc(-n3c4ccccc4c4ccccc43)ccc21) 509.28 nm; (in Cc1ccccc1) 489 nm; (in ClC(Cl)Cl) 515 nm; under setting [2], 505.12 nm.

In turn, `O=C([O-])c1cc(N2C(=O)C=CC2=O)ccc1-c1c2cc(F)c(=O)cc-2oc2cc([O-])c(F)cc12` registered an emission maximum (in O) of 520 nm.

Turning to `CCCCC1(CCCC)c2cc(C#Cc3ccc4ccc5cccc6ccc3c4c56)ccc2-c2ccc(C#Cc3ccc4ccc5cccc6ccc3c4c56)cc21`, the emission maximum reads like this: (in C1CCCCC1) 433 nm; (in C1CCOC1) 437 nm; (in CC#N) 433 nm; (in CCOC(C)=O) 433 nm; (in CN(C)C=O) 441 nm; (in Cc1ccccc1) 438 nm. Also, the emission maximum amounted to 439 nm (in ClC(Cl)Cl) and 439 nm (in ClCCl).

Consider `CC1(C)c2ccccc2N(c2ccc(-c3nnc(-c4ccccc4)o3)cc2)c2ccccc21`, for which the emission maximum by setting is: (in Cc1ccccc1) 450 nm; (in c1ccc(-n2c(-c3c(-n4c5ccccc5c5ccccc54)cccc3-n3c4ccccc4c4ccccc43)nc3ccccc32)cc1) 455 nm.

On to `CCC(CC)COC1=CC2=C3c4cc(OCC(CC)CC)c(-c5ccccc5)n4[B-](F)(F)[n+]4nnn(c43)[B-](F)(F)[N+]2=C1c1ccccc1`, for which the emission maximum was 725 nm (in C1CCOC1), 721 nm (in CC#N) and 730 nm (in ClCCl).

Molecule `c1cc2ccc1-c1ccc(cc1)-c1ccc([se]1)-c1ccc(cc1)-c1ccc(cc1)-c1ccc([se]1)-c1ccc(cc1)-c1ccc(cc1)-c1ccc-2[se]1` registered an emission maximum (in C1CCOC1) of 560 nm.

Turning to `CC(=O)OC[C@H]1O[C@@H](OCC#Cc2ccc(C3=C4C(C)=CC(/C=C/c5ccc([N+](C)(C)C)cc5)=[N+]4[B-](F)(F)n4c(/C=C/c5ccc([N+](C)(C)C)cc5)cc(C)c43)cc2)[C@H](OC(C)=O)C(OC(C)=O)[C@@H]1OC(C)=O` (stereo partly specified), where the note is “in CC#N”, the emission maximum is listed as 629 nm.

The molecule `c1ccc2c(c1)c1ccccc1n2-c1ccc(-c2ccc(-n3c4ccccc4c4ccccc43)nc2-n2c3ccccc3c3ccccc32)nn1` had an emission maximum (in CC#N) of 464.96 nm, an emission maximum (in Cc1ccccc1) of 423 nm and an emission maximum (in ClCCl) of 432.68 nm.

Take `O=P(c1ccccc1)(c1ccccc1)n1c2ccccc2c2cc(-n3c4ccccc4c4cc(-n5c6ccccc6c6ccccc65)ccc43)ccc21`: the emission maximum by setting is: (in C1CCOC1) 373 nm; (in CC(C)=O) 374 nm; (in Cc1ccccc1) 373 nm; (in ClCCl) 381 nm.

Under “in ClC(Cl)Cl”, `CCCCCCCCCCOc1cc(OCCCCCCCCCC)cc(C2=C3C(/C=C/c4ccc(OC)cc4)=C(C#Cc4ccc(C(C)(C)C)cc4)C(/C=C/c4ccc(OC)cc4)=[N+]3[B-](F)(F)n3c(/C=C/c4ccc(OC)cc4)c(C#Cc4ccc(C(C)(C)C)cc4)c(/C=C/c4ccc(OC)cc4)c32)c1` had an emission maximum of 756 nm.

Take `Cc1c(-c2nc(-c3ccccc3)nc(-c3ccccc3)n2)ccc(-n2c3ccccc3c3cc4c(cc32)C2c3ccccc3C4c3ccccc32)c1C`: the emission maximum reads like this: (in Cc1ccccc1) 427 nm; under setting [1], 435 nm.

Consider `Cc1nc(-c2cc(F)ccc2O)n2c1CCCC2`, for which the emission maximum (in ClCCl) came out at 464 nm.

Under “in CCO”, `C#Cc1ccc2cc3c(C)cc(=O)oc3cc2c1` had an emission maximum of 437 nm.

Consider `C(=C\c1cc(/C=C/c2ccc(N(c3ccccc3)c3ccccc3)cc2)ncn1)/c1ccc(N(c2ccccc2)c2ccccc2)cc1`, for which, under “in ClCCl”, the emission maximum was 540 nm.

For the setting “in ClC(Cl)Cl”, `CC(C)C[Si](C#Cc1c2c(=O)c3ccccc3c2c(C#C[Si](CC(C)C)(CC(C)C)CC(C)C)c2c(=O)c3ccccc3c12)(CC(C)C)CC(C)C` had an emission maximum of 567 nm.

`Cc1ccc2nc(-c3cccc4nc(C)[nH]c(=O)c34)oc2c1` came in with an emission maximum (in CN(C)C=O) of 410 nm.

`c1ccc(N(c2ccccc2)c2ccc(-c3ccc4c(c3)C3(c5cc(-c6ccc(N(c7ccccc7)c7ccccc7)cc6)ccc5O4)c4ccccc4-c4ccccc43)cc2)cc1` displayed an emission maximum (in ClCCl) of 419 nm and an emission maximum under setting [2] of 407 nm.

On to `Clc1nc(Nc2ccccc2)nc(Nc2ccc3cc4ccccc4cc3c2)n1`, for which the emission maximum (in C1COCCO1) was 436 nm, the emission maximum (in CC#N) was found to be 432 nm, the emission maximum (in CCCCOCCCC) is on record as 430 nm and the emission maximum (in CCOC(C)=O) is on record as 433 nm.

As to `C(/C=C/c1cc2c3c(c1)CCCN3CCC2)=C\c1ccncc1`, the emission maximum is, setting by setting: (in C1COCCO1) 518 nm; (in CC#N) 569 nm; (in CCCCCCC) 442 nm; (in CO) 583 nm.
